Measured values from article PMC6422671 (British Journal of Clinical Pharmacology, 2019).
Where two headings read alike, the source gives them in different places.

Tests used:
[1] = parameters: method as in E Michaëlsson et al., manuscript in preparation; settings: ref E Michaëlsson et al., manuscript in preparation; cited from earlier work
[2] = Plasma pharmacokinetics after single oral dose, phase I; data geometric mean (coefficient of variation), t max median (range); assay type: in vivo, healthy men; settings: for AUC(0-inf) / AUC(0-t) / Cmax / Tmax / Vd/F / half-life: male, human, plasma; for Tmax: median (range); for Vd/F: read-out: Vz/F
Procedure: Participants fasted overnight for at least 10 hours before dosing. […] Participants resided at the study centre until 48 hours postdose and attended a follow‐up visit 7–10 days after dosing.
This dose was selected by the Safety Review Committee based on all available data for one or more higher doses in part A. Participants once again resided at the study centre until 48 hours postdose and attended a follow‐up visit 7–10 days after dosing.
Blood samples were collected only up to 48 hours after dosing for the first cohort; the sampling schedule was amended thereafter to include the later time points. Samples for determination of AZD4831 in plasma were analysed by Covance Laboratories Ltd. (Harrogate, UK). […] This method was validated prior to sample analysis in the range 2–2000 nmol L^−1 in plasma, using a 25 μL sample aliquot.

[3] = Adverse event monitoring, phase I single dose
Procedure: Safety assessments included adverse event (AE) monitoring, vital signs monitoring (systolic and diastolic blood pressure, pulse rate), electrocardiography, physical examinations and laboratory assessments (haematology, clinical chemistry and urinalysis).
The pharmacokinetic analysis set included all participants in the safety analysis set with evaluable pharmacokinetic data and no major protocol deviations. Analyses were performed using Statistical Analysis System (SAS) software, version 9.4. Descriptive statistics were not presented if there were fewer than 3 values available.

[4] = 45 mg after high-fat, high-calorie meal vs fasting

SMILES: C[C@@H](N)c1cc(Cl)ccc1Cn1c(=S)[nH]c(=O)c2[nH]ccc21 [AZD4831]
- human plasma protein binding [1]: 65%
- delay of t max by food [2, 4]: 2.5 h
- reduction of Cmax by food [2, 4]: 44%
- effect of food on AUC0–∞ ([2]; 45 mg fed vs fasted): slightly reduced
- effect of food on t 1/2λz ([2]; 45 mg fed vs fasted): slightly increased
- AUC(0-inf) ([2]; oral, 5 mg, 5 mg fasted): 0.514 µM·h
- AUC(0-t) ([2]; oral, 5 mg, 5 mg fasted): 0.294 µM·h
- Cmax ([2]; oral, 5 mg, 5 mg fasted): 0.015 µM
- Tmax ([2]; oral, 5 mg, 5 mg fasted): 1 h
- Vd/F ([2]; oral, 5 mg, 5 mg fasted, n = 4): 1580 L
- half-life ([2]; oral, 5 mg, 5 mg fasted, n = 4, read-out: t 1/2λz (converted)): 37.6 h
- AUC(0-inf) ([2]; oral, 15 mg, 15 mg fasted): 1.67 µM·h
- AUC(0-t) ([2]; oral, 15 mg, 15 mg fasted): 1.44 µM·h
- Cmax ([2]; oral, 15 mg, 15 mg fasted): 0.0834 µM
- Tmax ([2]; oral, 15 mg, 15 mg fasted): 0.74 h
- Vd/F ([2]; oral, 15 mg, 15 mg fasted): 1750 L
- half-life ([2]; oral, 15 mg, 15 mg fasted, read-out: t 1/2λz (converted)): 45.2 h
- AUC(0-inf) ([2]; oral, 45 mg, 45 mg fasted): 6.69 µM·h
- AUC(0-t) ([2]; oral, 45 mg, 45 mg fasted): 6.13 µM·h
- Cmax ([2]; oral, 45 mg, 45 mg fasted): 0.326 µM
- Tmax ([2]; oral, 45 mg, 45 mg fasted): 0.51 h
- Vd/F ([2]; oral, 45 mg, 45 mg fasted): 1450 L
- half-life ([2]; oral, 45 mg, 45 mg fasted, read-out: t 1/2λz (converted)): 49.9 h
- AUC(0-inf) ([2]; oral, 45 mg, 45 mg fed): 5.79 µM·h
- AUC(0-t) ([2]; oral, 45 mg, 45 mg fed): 5.37 µM·h
- Cmax ([2]; oral, 45 mg, 45 mg fed): 0.184 µM
- Tmax ([2]; oral, 45 mg, 45 mg fed): 3 h
- Vd/F ([2]; oral, 45 mg, 45 mg fed): 1940 L
- half-life ([2]; oral, 45 mg, 45 mg fed, read-out: t 1/2λz (converted)): 58 h
- Cmax ([2]; oral, 135 mg, 135 mg fasted): 1.09 µM
- Tmax ([2]; oral, 135 mg, 135 mg fasted): 0.74 h
- Vd/F ([2]; oral, 135 mg, 135 mg fasted): 1450 L
- half-life ([2]; oral, 135 mg, 135 mg fasted, read-out: t 1/2λz (converted)): 48.4 h
- Cmax ([2]; oral, 405 mg, 405 mg fasted): 3.04 µM
- Tmax ([2]; oral, 405 mg, 405 mg fasted): 0.75 h
- Vd/F ([2]; oral, 405 mg, 405 mg fasted): 1270 L
- half-life ([2]; oral, 405 mg, 405 mg fasted, read-out: t 1/2λz (converted)): 38.1 h
- half-life ([2]; po, single oral doses 5–405 mg fasted, range across doses, read-out: plasma half-life (t 1/2λz estimates)): 38.2 to 50 h
- Any AE ([3]; 5 mg fasted n = 6): 2 (33.3) n (%)
- Epistaxis ([3]; 5 mg fasted n = 6): 0 n (%)
- Gastroenteritis ([3]; 5 mg fasted n = 6): 0 n (%)
- Headache ([3]; 5 mg fasted n = 6): 0 n (%)
- Nasopharyngitis ([3]; 5 mg fasted n = 6): 0 n (%)
- Oropharyngeal pain ([3]; 5 mg fasted n = 6): 1 (16.7) n (%)
- Rash maculopapular ([3]; 5 mg fasted n = 6): 0 n (%)
- Restlessness ([3]; 5 mg fasted n = 6): 1 (16.7) n (%)
- Rhinitis ([3]; 5 mg fasted n = 6): 0 n (%)
- Any AE ([3]; 15 mg fasted n = 6): 2 (33.3) n (%)
- Epistaxis ([3]; 15 mg fasted n = 6): 1 (16.7) n (%)
- Gastroenteritis ([3]; 15 mg fasted n = 6): 0 n (%)
- Headache ([3]; 15 mg fasted n = 6): 1 (16.7) n (%)
- Nasopharyngitis ([3]; 15 mg fasted n = 6): 0 n (%)
- Oropharyngeal pain ([3]; 15 mg fasted n = 6): 0 n (%)
- Rash maculopapular ([3]; 15 mg fasted n = 6): 0 n (%)
- Restlessness ([3]; 15 mg fasted n = 6): 0 n (%)
- Rhinitis ([3]; 15 mg fasted n = 6): 0 n (%)
- Any AE ([3]; 45 mg fasted n = 6): 3 (50.0) n (%)
- Epistaxis ([3]; 45 mg fasted n = 6): 0 n (%)
- Gastroenteritis ([3]; 45 mg fasted n = 6): 1 (16.7) n (%)
- Headache ([3]; 45 mg fasted n = 6): 2 (33.3) n (%)
- Nasopharyngitis ([3]; 45 mg fasted n = 6): 0 n (%)
- Oropharyngeal pain ([3]; 45 mg fasted n = 6): 0 n (%)
- Rash maculopapular ([3]; 45 mg fasted n = 6): 1 (16.7) n (%)
- Restlessness ([3]; 45 mg fasted n = 6): 0 n (%)
- Rhinitis ([3]; 45 mg fasted n = 6): 0 n (%)
- Any AE ([3]; 45 mg fed n = 4): 0 n (%)
- Epistaxis ([3]; 45 mg fed n = 4): 0 n (%)
- Gastroenteritis ([3]; 45 mg fed n = 4): 0 n (%)
- Headache ([3]; 45 mg fed n = 4): 0 n (%)
- Nasopharyngitis ([3]; 45 mg fed n = 4): 0 n (%)
- Oropharyngeal pain ([3]; 45 mg fed n = 4): 0 n (%)
- Rash maculopapular ([3]; 45 mg fed n = 4): 0 n (%)
- Restlessness ([3]; 45 mg fed n = 4): 0 n (%)
- Rhinitis ([3]; 45 mg fed n = 4): 0 n (%)
- Any AE ([3]; 135 mg fasted n = 6): 3 (50.0) n (%)
- Epistaxis ([3]; 135 mg fasted n = 6): 0 n (%)
- Gastroenteritis ([3]; 135 mg fasted n = 6): 0 n (%)
- Headache ([3]; 135 mg fasted n = 6): 1 (16.7) n (%)
- Nasopharyngitis ([3]; 135 mg fasted n = 6): 1 (16.7) n (%)
- Oropharyngeal pain ([3]; 135 mg fasted n = 6): 0 n (%)
- Rash maculopapular ([3]; 135 mg fasted n = 6): 1 (16.7) n (%)
- Restlessness ([3]; 135 mg fasted n = 6): 0 n (%)
- Rhinitis ([3]; 135 mg fasted n = 6): 0 n (%)
- Any AE ([3]; 405 mg fasted n = 6): 2 (33.3) n (%)
- Epistaxis ([3]; 405 mg fasted n = 6): 0 n (%)
- Gastroenteritis ([3]; 405 mg fasted n = 6): 0 n (%)
- Headache ([3]; 405 mg fasted n = 6): 0 n (%)
- Nasopharyngitis ([3]; 405 mg fasted n = 6): 0 n (%)
- Oropharyngeal pain ([3]; 405 mg fasted n = 6): 1 (16.7) n (%)
- Rash maculopapular ([3]; 405 mg fasted n = 6): 2 (33.3) n (%)
- Restlessness ([3]; 405 mg fasted n = 6): 0 n (%)
- Rhinitis ([3]; 405 mg fasted n = 6): 1 (16.7) n (%)
- maculopapular rash (moderate intensity), participants ([3]; all participants receiving AZD4831): 4/30
- maculopapular rash (moderate intensity), participants ([3]; all participants receiving AZD4831, n = 30): 13.3%
- duration of maculopapular rash ([3]; in vivo): 5 to 9 days
- time of report of maculopapular rash after dosing ([3]; in vivo): 7 to 9 days
- Any AE ([3]; pooled AZD4831 fasted n = 30): 12 (40.0) n (%)
- Epistaxis ([3]; pooled AZD4831 fasted n = 30): 1 (3.3) n (%)
- Gastroenteritis ([3]; pooled AZD4831 fasted n = 30): 1 (3.3) n (%)
- Headache ([3]; pooled AZD4831 fasted n = 30): 4 (13.3) n (%)
- Nasopharyngitis ([3]; pooled AZD4831 fasted n = 30): 1 (3.3) n (%)
- Oropharyngeal pain ([3]; pooled AZD4831 fasted n = 30): 2 (6.7) n (%)
- Rash maculopapular ([3]; pooled AZD4831 fasted n = 30): 4 (13.3) n (%)
- Restlessness ([3]; pooled AZD4831 fasted n = 30): 1 (3.3) n (%)
- Rhinitis ([3]; pooled AZD4831 fasted n = 30): 1 (3.3) n (%)
- serious AEs or deaths ([3]; whole study): no serious AEs or deaths occurred
